These results are taken from US10793531B2, “Triazole derivatives and their use as PDE4 activators” (MIRONID LIMITED, priority 2015, dated 2020).

Each structure is given as a SMILES string. Like-named read-outs stand apart in the source and are kept apart here.

In series [1] the target is T1, full-length human PDE4B1 (Homo sapiens, UniProt Q07343).
T1 construct: stably expressed the full-length human PDE4D5, PDE4A4 and PDE4B1 long isoforms; made in house; cytosol fraction of the lysate
Kind of series: PDE4 radio-assay, PDE4B1 long form activation (Experiment 1). In kind it is biochemical. The conditions noted are these: n ≥ 2. As for the experimental part:
One suitable method of detecting whether or not a compound is capable of serving as an activator of a PDE4 long form is using a two-step radio-assay procedure described in Experiment 1. In summary, the method involves incubating a PDE4 long form with a test small molecule activator, together with [^3H]-labelled cAMP to assess alterations in the breakdown of cAMP to the 5′-adenosine monophosphate (5′-AMP) product. A sample of the reaction mixture from such an incubation is subsequently treated with snake venom 5′-nucleotidase to allow conversion of the nucleotide [^3H]-labelled 5′-AMP to the uncharged nucleoside [^3H]-labelled adenosine, which can be separated and quantified to assess PDE4 activity and the effect of the test compound (Thompson, W. J. and Appleman, M. M. Biochemistry 10: 311-316, 1971, with some modifications as described in: Marchmont, R. J. and Houslay, M. D. Biochem J. 187: 381-92, 1980).
HEK 293 cells were transfected with pDEST™ PDE4 expression vectors using Lipofectamine LTX/Plus reagent (Invitrogen) as outlined by the manufacturer and clonal isolates expanded to obtain cell lines that stably expressed the full-length human PDE4D5, PDE4A4 and PDE4B1 long isoforms and the full length human PDE4B2 short isoform. These were called the HEK-PDE4D5, HEK-PDE4A4, HEK-PDE4B1 and HEK-PDE4B2 cell lines, respectively.
HEK-PDE4D5 cells were seeded out in 100 mm plates and incubated at 37° C. in an atmosphere of 5% CO2, 95% air. Cell lysates were prepared using KHEM buffer [50 mM KCl, 10 mM EGTA, 50 mM HEPES (pH 7.2), 1.92 mM MgCl2].
To prepare the cell lysates, the 100 mm plates containing the cells were placed on ice and washed with ice-cold PBS (phosphate buffered saline, pH 7.4). KHEM buffer (500 μl) was added to the cells. Cells were then scraped off the plate and triturated using a needle (BD Microlance™ 0.8, 40 mm). The lysed cells were then centrifuged at 2000 rpm for 10 minutes to remove cell debris and the supernatant (cell lysate containing recombinant PDE4D5) was transferred to a fresh tube and kept on ice.
The cell lysate containing recombinant PDE4D5 was transferred into a centrifuge tube and placed into an ultracentrifuge (BECKMAN COULTER) and spun at high speed (100,000 g) for 30 minutes at 4° C. The cytosol fraction was then collected and its protein amount determined using a BCA protein assay.
PDE assays were performed using a final concentration of 10 mM Tris/5 mM MgCl2 and 1 μM [3H]-cAMP (Perkin Elmer) plus PDE4D5 cell lysate cytosol fraction, containing over-expressed PDE4D5, with and without test compound. Incubations were performed at 30° C. for 5 minutes. The samples were then placed in a boiling water bath for 2 minutes to denature the PDE enzyme, and returned to ice. Samples were allowed to cool for 1.0 min after which snake venom 5′-nucleotidase (25 μl, 1 mg/ml; Sigma) was added. The tubes were vortexed and incubated in a water bath at 30° C. for 10 minutes, to attain conversion of [3H]-5′-AMP to [3H]-adenosine, and then placed on ice. Dowex ion exchange resin (Sigma) prepared as a 1:1 Dowex:water stock was thoroughly re-suspended and diluted 2:1 with ethanol. The resulting Dowex suspension (0.4 ml) was added to each tube. Tubes were vortexed to mix and then incubated on ice for at least 15 minutes before a final vortex. […] Tubes were vortexed thoroughly to mix and the recovered [3H]-adenosine was quantified by measuring counts over 1 minute in a scintillation counter.

Series [2] concerns androgen-sensitive (AS) LNCaP human prostate cancer cells. Put plainly: Xcelligence proliferation assay, androgen-sensitive LNCaP cells (Experiment 5). In kind it is cell-based. The conditions noted are these: normalised cell index at 72 hours; FIG. 9. As for the experimental part: In this study, the potential utility of PDE4 long form activators in the treatment of prostate cancer was studied using the LNCaP human prostate cancer cell line. The experiments were carried out according to the method described by Henderson et al. (Henderson, D. J. P., Byrne, A., Dulla, K., Jenster, G., Hoffmann, R., Baillie, G. S., Houslay, M. D. Br. J. Cancer 110: 1278-1287, 2014).
Androgen-sensitive (AS) LNCaP cells were maintained in RPMI1640 supplemented with 10% FBS (Seralabs), 2 mM L-glutamine and 1,000 U penicillin-streptomycin. LNCaP androgen-insensitive (AI) cells were generated in-house by culturing the LNCaP-AS cells in RPMI1640 supplemented with 10% charcoal stripped FBS, 2 mM L-glutamine and 1,000 U penicillin-streptomycin for a minimum of four weeks. All tissue culture reagents were, from Life Technologies.
Cell proliferation is measured as a function of changing electrical impedance. Values are represented by cell index number, a dimensionless unit of measurement representing the cell status, which increases as cells adhere to 96-well electrode plates and divide. […]
Cell indices were measured every 10 minutes for up to 100 hours, analysed using RICA software and normalised to the cell index of vehicle-treated cells (n=3).

Series [3] in a line: Pharmacokinetic profile in male C57 mice (Experiment 7). In kind it is in vivo, mouse. As for the experimental part:
Example A was dissolved in 5% DMA+10% Solutol+85%(10% HPBCD in water) to afford a clear dosing solution of 1 mg/mL. The dosing solution was administered to three mice at 2 mg/kg i.v. via the tail vein and to three further mice at 10 mg/kg p.o. via oral gavage. Blood samples (ca. 20 μL) were collected at 2, 5, 20 min, 1, 2, 4, 8 and 12 h after i.v. dosing and at 15, 30 min, 1, 2, 4, 8, 12 and 24 h after oral dosing. The blood samples were diluted with 3 volumes of distilled water and stored at −80° C. until analysis. The samples were analysed by UPLC-MS/MS (API 5500).

T1 sequence (Q07343 whole entry, canonical isoform): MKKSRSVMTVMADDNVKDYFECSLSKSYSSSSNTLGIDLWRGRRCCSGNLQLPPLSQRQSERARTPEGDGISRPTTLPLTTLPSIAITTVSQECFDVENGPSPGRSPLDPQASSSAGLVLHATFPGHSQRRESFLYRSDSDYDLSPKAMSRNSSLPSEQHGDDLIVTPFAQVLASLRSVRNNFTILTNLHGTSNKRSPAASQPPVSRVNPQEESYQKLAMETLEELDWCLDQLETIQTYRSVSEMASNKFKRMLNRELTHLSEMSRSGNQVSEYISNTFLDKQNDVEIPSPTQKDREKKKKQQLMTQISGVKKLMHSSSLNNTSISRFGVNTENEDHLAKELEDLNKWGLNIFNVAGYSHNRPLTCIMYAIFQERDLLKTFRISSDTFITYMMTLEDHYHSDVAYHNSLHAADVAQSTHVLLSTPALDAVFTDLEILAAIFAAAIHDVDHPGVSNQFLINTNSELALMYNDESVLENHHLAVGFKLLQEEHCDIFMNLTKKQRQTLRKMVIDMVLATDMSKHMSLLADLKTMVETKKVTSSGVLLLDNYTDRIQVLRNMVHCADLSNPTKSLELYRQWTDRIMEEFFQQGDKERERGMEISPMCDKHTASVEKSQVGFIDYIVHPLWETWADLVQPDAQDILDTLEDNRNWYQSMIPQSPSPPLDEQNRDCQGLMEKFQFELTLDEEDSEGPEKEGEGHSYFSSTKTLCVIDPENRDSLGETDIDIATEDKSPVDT

Turning to `CCc1nc(-c2ccc(Cl)c(F)c2)nn1CC(=O)NCc1cccc(F)c1` [Example A, N-(3-Fluorobenzyl)-2-[3-(4-chloro-3-fluorophenyl)-5-ethyl-1H-1,2,4-triazol-1-yl]acetamide], the “PDE4B1 activity (mean % increase in counts over basal activity without added compound)” value was −2.4% in series [1] (1 μM compound); 4.9% in series [1] (3 μM compound); 22.0% in series [1] (10 μM compound); 61.3% in series [1] (30 μM compound); 92.9% in series [1] (50 μM compound). Further, in series [2], the “proliferation of androgen-sensitive (AS) LNCaP cells (in words)” value was “inhibits the proliferation”. The “abnormal effects observed in the mice” value in series [3] (2 mg/kg i.v. or 10 mg/kg p.o.) is reported as “No abnormal effects were observed”. Besides, the half-life is 4.2 h in series [3] (mouse, iv, 2 mg/kg i.v., whole blood, read-out: terminal half life after i.v. dosing (converted)) and 4.9 h in series [3] (mouse, po, 10 mg/kg p.o., whole blood, read-out: terminal half life after oral dosing (converted)). For the same compound, the bioavailability in series [3] (mouse, oral, 10 mg/kg p.o. vs 2 mg/kg i.v., whole blood) was determined as 66%.

The half-life is the time needed for the level to fall by half in the phase considered. What is called bioavailability is the share of a dose that reaches the circulation, judged against a reference dose that is usually intravenous. A lower bioavailability goes with little systemic uptake.
